Test system: mouse colon carcinoma (colon 26 carcinoma)
Test: Fluorescence imaging test (Test Example 2), tumor bearing nude mice, excitation 740 nm
Format: in vivo
Description: Tumor bearing mice were prepared in the same manner as Test Example 1, and conditions for irradiation was the same as those explained in Test Example 1. Compound 5, Compound 7, and Compound 10 were used as test compounds. Each of the test compounds (0.5 mg/ml) was dissolved in physiological saline or phosphate buffer (pH 7.4) and administered to the mice via a tail vein at the dose of 5.0 mg/Kg. For comparison, the following compound (Compound B, 5 mg/kg, i.v.) was administered to the mice.
Light was generated using a tunable, pulsed, solid state laser system consisting of an optical parametric oscillator (OPO) pumped by the third harmonic of a Nd:Yag laser (Coherent Inc.). An excitation wavelength of λex=740 nm was chosen and guided with an optical fiber to the tumor bearing nude mice. The dye-specific fluorescence exitance was imaged using a filter combination (Corion) and an intensified CCD camera (Roper Scientific.) at different times after dye administration (FIG. 4). Fluorescence imagings were taken before administration, and 1 min, 10 min, 30 min, 60 min, 2 hours, 4 hours, 24 hours after intravenous dye administration via the lateral tail venous at a standard dose of 5 mg/kg. In the first 60 min, the body temperature of the animals was kept at 38° C. with heating pad. Fluorescence imaging properties of the compounds were compared in nude mice tumor models. […]

Compound | tumor imaging as compared to the reference compound (Compound B) (5.0 mg/Kg via tail vein) | position of tumor within 1 hour after the administration (5 mg/kg, i.v., FIG. 8)
CC(/C=C/C=C1/N(CCC(=O)NC(CC(=O)O)C(=O)O)c2ccc3ccccc3c2C1(C)C)=C\C=C\C1=[N+](CCC(=O)NC(CC(=O)O)C(=O)O)c2ccc3ccccc3c2C1(C)C (centres unmarked) [Compound 5] | clear images of tumors at a shorter time | –
CC1(C)C(/C=C/C=C/C=C/C=C2/N(CCCCS(=O)(=O)[O-])c3ccc(C(=O)NCC(O)C(O)C(O)C(O)CO)cc3C2(C)C)=[N+](CCCCS(=O)(=O)[O-])c2ccc(C(=O)NCC(O)C(O)C(O)C(O)CO)cc21.[Na+] (centres unmarked) [Compound B] | – | not clear
